Test results reported in US20250186391A1, “ORAL COMPLEMENT FACTOR D INHIBITORS” (BioCryst Pharmaceuticals, Inc., priority 2019, published 2025).

Biological target: Factor D (Homo sapiens (Human), UniProt P00746)
Test: Factor D esterolytic assay
Format: biochemical
Conditions: Z-Lys-SBzl substrate, 100 mM HEPES, 500 mM NaCl, pH 7.5, 10% DMSO; tested a minimum of three times; read-out: Measured Ki (IC50) Value for Compounds: IC50
Method in brief: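 Chromogenic thioesterase read-out: Z-Lys-SBzl (1.29 mM) hydrolysis by human Factor D, thiol detected with DTNB at 405 nm (690 nm background subtracted) for 600 s. Run in 100 mM HEPES, 500 mM NaCl, pH 7.5, 10% DMSO, substrate added immediately or after room-temperature preincubation. IC50 from percent inhibition versus enzyme alone, n≥3.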

Factor D, sequence (P00746 26-253): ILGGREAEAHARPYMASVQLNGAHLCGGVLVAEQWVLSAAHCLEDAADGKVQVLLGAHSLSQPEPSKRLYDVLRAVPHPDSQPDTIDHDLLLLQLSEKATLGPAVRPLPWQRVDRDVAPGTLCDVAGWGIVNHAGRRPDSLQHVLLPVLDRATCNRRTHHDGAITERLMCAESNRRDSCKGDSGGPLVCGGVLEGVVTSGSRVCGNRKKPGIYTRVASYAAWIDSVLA

With `COc1ccc(CC(=O)O)c(OCc2nn(C(C)C)c3ccc(-c4cccc(CN)c4)cc23)c1` [Compound 213c, 2-(2-((5-(3-(aminomethyl)phenyl)-1-isopropyl-1H-indazol-3-yl)methoxy)-4-methoxyphenyl)acetic acid] the IC50 was < 1000 nM.
For `COc1ccc(CC(=O)O)c(OCc2c(C(C)=O)oc3ccc(-c4cccc(CN)c4)cc23)c1` [Compound 218c, 2-(2-((2-acetyl-5-(3-(aminomethyl)phenyl)benzofuran-3-yl)methoxy)-4-methoxyphenyl)acetic acid], the IC50 was < 1000 nM.
`CC(C)c1oc2ccc(-c3cccc(CN)c3)cc2c1COc1ccccc1CC(=O)O` [Compound 142e, 2-(2-((5-(3-(aminomethyl)phenyl)-2-isopropylbenzofuran-3-yl)methoxy)phenyl)acetic acid] was tested, and the IC50 was < 1000 nM.
With `NCc1cccc(-c2ccc3oc(C(F)F)c(COc4ccccc4CC(=O)O)c3c2)c1` [Compound 139c, 2-(2-((5-(3-(aminomethyl)phenyl)-2-(difluoromethyl)benzofuran-3-yl)methoxy)phenyl)acetic acid] the IC50 was < 1000 nM.
For `NCc1cccc(-c2ccc3oc(C(N)=O)c(COc4ccccc4CC(=O)O)c3c2)c1` [Compound 103c, 2-(2-((5-(3-(aminomethyl)phenyl)-2-carbamoylbenzofuran-3-yl)methoxy)phenyl)acetic acid], the IC50 was < 1000 nM.
In the case of `NCc1cccc(-c2cc(OCc3nccs3)c3occ(COc4ccccc4CC(=O)O)c3c2)c1` [Compound 196f, 2-(2-((5-(3-(aminomethyl)phenyl)-7-(thiazol-2-ylmethoxy)benzofuran-3-yl)methoxy)phenyl)acetic acid], the IC50 is reported as < 1000 nM.
`CC(C)c1ccc(CC(=O)O)c(OCc2coc3ccc(-c4cccc(CN)c4)cc23)c1` [Compound 190f, 2-(2-((5-(3-(aminomethyl)phenyl)benzofuran-3-yl)methoxy)-4-isopropylphenyl)acetic acid] was tested, and the IC50 was < 1000 nM.
